Data taken from patent US20260182577A1, “COMBINATIONS TREATMENTS” (Aequor Inc., priority 2020, published 2026).
Values joined by “and” are separate entries in the source; they are usually repeats but may differ in a detail not shown here. Equal entries are not always repeated. Where two headings read alike, the source gives them in different places.

Tests used:
[1] = test system: Staphylococcus aureus VRSA VRS7 NR-46417; assay: MIC broth microdilution, compounds and antibiotics alone and in combination; type: cell-based; conditions: for MIC: Staphylococcus aureus, read-out: Minimum Inhibitory Concentration (MIC)
Protocol: (§1) Antibiotic and Antibiofilm Susceptibility Tests. Minimum inhibitory concentration (MIC) broth microdilution method was performed according to CLSI guidelines (CLSI M07-A10: Methods for Dilution Antimicrobial Susceptibility Tests for Bacteria that Grow
(§2) Aerobically; Approved Standard-Tenth Edition). Minimum bactericidal concentration (MBC) was performed according to CLSI guidelines (CLSI M26-A: Methods for Determining Bactericidal Activity of Antimicrobial Agents; Approved Guideline).
(§3) The antibiotic resistance breakpoints were defined according to the recommendations of the Clinical and Laboratory Standards Institute (CLSI M07-A10: Methods for Dilution Antimicrobial Susceptibility Tests for Bacteria That Grow Aerobically; Approved Standard-Tenth Edition).
Four antibiotics (penicillin G, methicillin, gentamycin, and vancomycin) were tested in combination with SDBS and DBSA, by using a checkerboard methodology against MRSA ATCC 33591 (methicillin-R, gentamicin-R; penicillin-R) and VRSA VRS7 BEI NR-46417 (methicillin-R, gentamicin-R; penicillin-R, vancomycin-R). The combinations were assessed by fractional inhibitory concentration indices (FICIs) and the fold reduction of the MIC (“potentiation factor”) was calculated. In clinical terms, a potentiator enhances the action of a drug.

[2] = test system: Staphylococcus aureus MRSA ATCC 33591; assay: as above; type: cell-based; conditions: for MIC: Staphylococcus aureus, read-out: Minimum Inhibitory Concentration (MIC); for MIC / Minimum Inhibitory Concentration (MIC): alone, or antibiotic with SDBS/DBSA at sub-MIC concentration
Protocol: as §1, §2, §3
Four antibiotics (penicillin G, methicillin, gentamycin, and vancomycin) were tested in combination with SDBS and DBSA, by using a checkerboard methodology against MRSA ATCC 33591 (methicillin-R, gentamicin-R; penicillin-R) and VRSA VRS7 BEI NR-46417 (methicillin-R, gentamicin-R; penicillin-R, vancomycin-R). The combinations were assessed by fractional inhibitory concentration indices (FICIs) and the fold reduction of the MIC (“potentiation factor”) was calculated. In clinical terms, a potentiator enhances the action of a drug. SDBS and […] potentiate methicillin, gentamicin, penicillin, and vancomycin activity against MRSA and VRSA making MRSA and VRSA sensitive to those antibiotics (Table 13).

B. cepacia biofilm = assay: Biofilm inhibition (MBIC); type: cell-based, Burkholderia cepacia
Protocol: (§4) Imaging. Biofilm inhibition imaging was determined by growing biofilm in a black-walled optically-clear bottom 96 well plate at a 45° angle to promote biofilm formation prior to imaging. Biofilm was stained with Syto 9 green fluorescent live and dead nucleic acid stain and measuring total intensity with excitation/emission (nm): 456/541. Images of biofilm were taken using MiniMax 300 Imaging Cytometer (Molecular Devices).

[3] = test system: E. coli ATCC 11775 biofilm; assay: Biofilm inhibition (MBIC), Syto 9 imaging; type: cell-based
Protocol: (§5) FIGS. 1A and 1B show biofilm inhibition by butyl phosphoramidate (BPA), sodium dodecylbenzenesulfonate (SDBS), and 4-Dodecylbenzenesulfonic acid (DBSA) against Staphylococcus aureus ATCC 12600 and E. coli ATCC 11775, which was determined by (A) measuring total intensity with Ex/Em (nm): 456/541 and (B) staining biofilm with Syto 9 green-fluorescent nucleic acid stain. Biofilm images appear white and gray and images without biofilm appear black. Images of untreated biofilm, sub-MBIC, and MBIC were taken using MiniMax 300 Imaging Cytometer (Molecular Devices).
as §4

[4] = test system: P. aeruginosa type 2 mucoid ATCC 33468; assay: MIC broth microdilution; type: cell-based, Pseudomonas aeruginosa
Protocol: as §1, §2

[5] = test system: S. aureus ATCC 6358 biofilm; assay: Minimum biofilm eradicating concentration (MBEC) assay, ASTM E2799-12; type: cell-based, Staphylococcus aureus
Protocol: Data corresponds to 4.4-Log reduction.
Minimum biofilm eradicating concentration (MBEC) was performed according to the ASTM standard (ASTM E2799-12; Standard Test Method for Testing Disinfectant Efficacy against Pseudomonas aeruginosa Biofilm using the MBEC Assay). Assays were performed in quadruplicates on more than one occasion.

[6] = test system: S. aureus ATCC 12600 biofilm; assay: Biofilm inhibition (MBIC), Syto 9 imaging; type: cell-based, Staphylococcus aureus
Protocol: as §5, §4

[7] = VRSA VRS7 NR-46417, alone, or antibiotic with SDBS/DBSA at sub-MIC concentration

Compound	Resistant / sensitive by CLSI breakpoints ([1]; VRSA VRS7 NR-46417)	Resistant / sensitive by CLSI breakpoints [2]	MIC [2] [µg/mL]	MIC [1, 7] [µg/mL]	MBIC (inhibition of biofilm formation) [6] [µg/mL]	other results
CN[C@H](CC(C)C)C(=O)N[C@H]1C(=O)N[C@@H](CC(N)=O)C(=O)N[C@H]2C(=O)N[C@H]3C(=O)N[C@H](C(=O)N[C@H](C(=O)O)c4cc(O)cc(O)c4-c4cc3ccc4O)[C@H](O)c3ccc(c(Cl)c3)Oc3cc2cc(c3O[C@@H]2O[C@H](CO)[C@@H](O)[C@H](O)[C@H]2O[C@H]2C[C@](C)(N)[C@H](O)[C@H](C)O2)Oc2ccc(cc2Cl)[C@H]1O [Vancomycin, vancomycin]	(R)					MIC ([1]; VRSA): 22.7 µg/mL
COc1cccc(OC)c1C(=O)N[C@@H]1C(=O)N2[C@@H]1SC(C)(C)[C@@H]2C(=O)O [Methicillin, methicillin]	(R)	(R)	> 22.7	> 22.7		
CC1(C)S[C@@H]2[C@H](NC(=O)Cc3ccccc3)C(=O)N2[C@H]1C(=O)O [Penicillin, penicillin G]	(R)	(R)	> 22.7	11.3		
butyl phosphoramidate [BPA]					50	Minimum Inhibitory Concentration (MIC) [2]: 25 µg/mL and 12.5 µg/mL; MBIC (inhibition of biofilm formation) (B. cepacia biofilm): 50 µg/mL; MBIC (inhibition of biofilm formation) [3]: 50 µg/mL; Minimum Inhibitory Concentration (MIC) [1, 7]: 25 µg/mL and 12.5 µg/mL; Minimum Inhibitory Concentration (MIC) [4]: 25 µg/mL and 12.5 µg/mL; Log reduction of viable cells ([5]; after 10 minutes of exposure): 4.4 Log; removal of biofilm ([5]; after 10 minutes of exposure, colony counting CFU/ml): 99.99%; MBEC (removal of existing biofilm) ([5]; demonstrated by Lonza): < 25 µg/mL
gentamicin	(R)	(R)				Minimum Inhibitory Concentration (MIC) [2]: >45.4 µg/mL; Minimum Inhibitory Concentration (MIC) [1, 7]: 22.7 µg/mL
CCCCCCCCCCCCc1ccc(S(=O)(=O)O)cc1 [DBSA, 4-Dodecylbenzenesulfonic acid]			19	> 20	100	
CCCCCCCCCCCCOS(=O)(=O)[O-].[Na+] [SDS, sodium dodecyl sulfate]					140	
